Measurements as given in article PMC6934184, “Selective DNA-PKcs inhibition extends the therapeutic index of localized radiotherapy and chemotherapy” (The Journal of Clinical Investigation, 2019).

Target: T1, KDR (VEGFR2) (Homo sapiens, UniProt P35968)
T1 construct: purchased Thermo Fisher Scientific (Life Technologies) SelectScreen
Test: SelectScreen Z'LYTE
Assay type: biochemical
Outline: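 Percent values come from Thermo SelectScreen profiling of NU5455, combining activity and binding assays. CSF1R was run in Z'LYTE format at Km app ATP, and CAMK1 in Adapta format with ATP listed at 10.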

T1 sequence (P35968 20-1356): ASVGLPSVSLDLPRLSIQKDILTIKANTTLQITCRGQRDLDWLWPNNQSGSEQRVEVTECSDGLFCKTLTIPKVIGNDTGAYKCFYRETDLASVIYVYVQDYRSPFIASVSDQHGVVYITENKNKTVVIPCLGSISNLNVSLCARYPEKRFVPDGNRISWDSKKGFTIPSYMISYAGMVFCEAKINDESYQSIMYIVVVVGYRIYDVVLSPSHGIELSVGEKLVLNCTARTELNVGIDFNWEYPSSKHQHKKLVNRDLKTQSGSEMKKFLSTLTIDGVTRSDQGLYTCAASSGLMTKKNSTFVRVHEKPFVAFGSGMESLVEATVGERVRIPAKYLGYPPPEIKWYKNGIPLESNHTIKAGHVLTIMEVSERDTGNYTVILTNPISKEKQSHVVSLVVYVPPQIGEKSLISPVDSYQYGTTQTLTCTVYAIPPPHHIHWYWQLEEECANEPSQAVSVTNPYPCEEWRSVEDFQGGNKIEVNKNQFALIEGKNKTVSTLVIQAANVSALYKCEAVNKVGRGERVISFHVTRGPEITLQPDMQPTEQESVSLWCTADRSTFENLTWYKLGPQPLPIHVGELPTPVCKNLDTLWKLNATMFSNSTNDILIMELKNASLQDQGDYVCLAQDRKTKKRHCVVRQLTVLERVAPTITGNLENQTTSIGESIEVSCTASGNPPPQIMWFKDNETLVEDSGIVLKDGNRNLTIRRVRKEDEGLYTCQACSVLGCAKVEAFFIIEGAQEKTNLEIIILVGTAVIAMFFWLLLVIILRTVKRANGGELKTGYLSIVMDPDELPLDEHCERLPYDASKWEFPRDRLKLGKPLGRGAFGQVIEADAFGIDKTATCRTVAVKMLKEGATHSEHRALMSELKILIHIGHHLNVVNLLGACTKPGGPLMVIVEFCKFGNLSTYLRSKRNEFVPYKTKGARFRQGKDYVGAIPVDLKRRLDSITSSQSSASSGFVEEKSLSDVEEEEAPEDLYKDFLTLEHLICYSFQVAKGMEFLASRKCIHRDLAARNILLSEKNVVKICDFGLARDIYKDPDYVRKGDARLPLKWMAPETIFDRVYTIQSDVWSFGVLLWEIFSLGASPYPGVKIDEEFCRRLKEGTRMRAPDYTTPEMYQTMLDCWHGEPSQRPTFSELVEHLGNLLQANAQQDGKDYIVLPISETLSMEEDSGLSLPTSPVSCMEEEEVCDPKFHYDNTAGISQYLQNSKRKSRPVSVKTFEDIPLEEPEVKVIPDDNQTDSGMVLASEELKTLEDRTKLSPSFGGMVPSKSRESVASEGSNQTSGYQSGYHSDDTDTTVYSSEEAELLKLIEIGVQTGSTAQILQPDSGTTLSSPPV

Compound: CN(C(=O)CN1CCOCC1)c1ccc2sc3c(-c4cccc5c(=O)cc(N6CC7CCC(C6)O7)oc45)cccc3c2c1 [NU5455]
- inhibition at 1 µM: 1.8%
